#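 In this assay, cells in 96-well plates receive the compound at five concentrations for 48 hours. Endpoints are linearly interpolated between the surrounding concentrations. GI50 = concentration required for 50% inhibition of growth. TGI: concentration producing complete growth inhibition.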
# Legend:
# Experiment in all cases: NCI-60 cell line screen, 48 h
# SW-620 colon = system: SW-620 colon
# TK-10 renal = system: TK-10 renal
# M14 melanoma = system: M14 melanoma
# SF-268 CNS = system: SF-268 CNS
# SNB-19 CNS = system: SNB-19 CNS
# SK-OV-3 ovarian = system: SK-OV-3 ovarian
# PC-3 prostate = system: PC-3 prostate
# DU-145 prostate = system: DU-145 prostate
# ACHN renal = system: ACHN renal
# A498 renal = system: A498 renal
# HOP-92 NSCLC = system: HOP-92 NSCLC
# NCI-H460 lung = system: NCI-H460 lung
# SK-MEL-2 melanoma = system: SK-MEL-2 melanoma
# MCF7 breast = system: MCF7 breast
# MDA-MB-231 breast = system: MDA-MB-231 breast
# UACC-257 melanoma = system: UACC-257 melanoma
# SR leukemia = system: SR leukemia
# RPMI-8226 leukemia = system: RPMI-8226 leukemia
# OVCAR-3 ovarian = system: OVCAR-3 ovarian
# LOX IMVI melanoma = system: LOX IMVI melanoma
# NCI-H522 lung = system: NCI-H522 lung
# K-562 leukemia = system: K-562 leukemia
# HCT-116 colon = system: HCT-116 colon
# HL-60(TB) leukemia = system: HL-60(TB) leukemia
# UO-31 renal = system: UO-31 renal
# 786-0 renal = system: 786-0 renal
# T-47D breast = system: T-47D breast
# COLO 205 colon = system: COLO 205 colon
# HS 578T breast = system: HS 578T breast
smiles,measurement,setting,value
CS(=O)(=O)Nc1ccc(Nc2c3ccccc3nc3cc(N)ccc23)cc1,GI50,SW-620 colon,561 nM
same,TGI,SW-620 colon,30000 nM
same,GI50,TK-10 renal,6080 nM
same,TGI,TK-10 renal,31700 nM
same,GI50,M14 melanoma,361 nM
same,TGI,M14 melanoma,7100 nM
same,GI50,SF-268 CNS,22.2 nM
same,TGI,SF-268 CNS,5690 nM
same,GI50,SNB-19 CNS,241 nM
same,TGI,SNB-19 CNS,15400 nM
same,GI50,SK-OV-3 ovarian,1310 nM
same,TGI,SK-OV-3 ovarian,27700 nM
same,GI50,PC-3 prostate,1310 nM
same,TGI,PC-3 prostate,27100 nM
same,GI50,DU-145 prostate,480 nM
same,TGI,DU-145 prostate,26000 nM
same,GI50,ACHN renal,231 nM
same,TGI,ACHN renal,17800 nM
same,GI50,A498 renal,1320 nM
same,TGI,A498 renal,17400 nM
same,GI50,HOP-92 NSCLC,398 nM
same,TGI,HOP-92 NSCLC,4400 nM
same,GI50,NCI-H460 lung,25.5 nM
same,TGI,NCI-H460 lung,2600 nM
same,GI50,SK-MEL-2 melanoma,2260 nM
same,TGI,SK-MEL-2 melanoma,7040 nM
same,GI50,MCF7 breast,52 nM
same,TGI,MCF7 breast,9160 nM
same,GI50,MDA-MB-231 breast,12400 nM
same,TGI,MDA-MB-231 breast,34000 nM
same,GI50,UACC-257 melanoma,1480 nM
same,TGI,UACC-257 melanoma,14900 nM
same,GI50,SR leukemia,35 nM
same,TGI,SR leukemia,1190 nM
same,GI50,RPMI-8226 leukemia,567 nM
same,TGI,RPMI-8226 leukemia,6840 nM
same,GI50,OVCAR-3 ovarian,1700 nM
same,TGI,OVCAR-3 ovarian,8830 nM
same,GI50,LOX IMVI melanoma,418 nM
same,TGI,LOX IMVI melanoma,15200 nM
same,GI50,NCI-H522 lung,164 nM
same,TGI,NCI-H522 lung,2690 nM
same,GI50,K-562 leukemia,1310 nM
same,TGI,K-562 leukemia,23900 nM
same,GI50,HCT-116 colon,717 nM
same,TGI,HCT-116 colon,29200 nM
same,GI50,HL-60(TB) leukemia,769 nM
same,TGI,HL-60(TB) leukemia,8510 nM
same,GI50,UO-31 renal,3130 nM
same,TGI,UO-31 renal,> 100000 nM
same,GI50,786-0 renal,277 nM
same,TGI,786-0 renal,4660 nM
same,GI50,T-47D breast,80.6 nM
same,TGI,T-47D breast,2520 nM
same,GI50,COLO 205 colon,2510 nM
same,TGI,COLO 205 colon,20000 nM
same,GI50,HS 578T breast,1720 nM

# From PubChem BioAssay (NCI)
